Patent publication US9499534B2, “Thiazole-substituted aminopyrimidines as spleen tyrosine kinase inhibitors” (priority 2013, dated 2016)

Tested on: PGD2
Assay: not given
Settings: dosed intranasally, phase I/II study, allergic rhinitis; cited from earlier work

| SMILES | clinical safety | decrease in PGD2 |
| --- | --- | --- |
| Oc1cccc(Nc2ncc(F)c(Nc3cccc(O)c3)n2)c1 [Example R112] | safe across a range of indicators | statistically significant decrease |

Tested on: not given
Assay: not given
Settings: phase II clinical trial for allergic rhinitis; cited from earlier work

| SMILES | efficacy versus placebo |
| --- | --- |
| Oc1cccc(Nc2ncc(F)c(Nc3cccc(O)c3)n2)c1 [Example R112] | lack of efficacy versus placebo |

Target: recombinant human GST-SYK (Homo sapiens (Human), UniProt P43405)
Assay: Homogeneous Time-Resolved Fluorescence (HTRF) Assay for the Recombinant Human Syk Enzyme
Assay type: biochemical
Settings: GST-SYK 5 pM, ATP 25 μM, biotinylated substrate peptide 250 nM, HTRF signal
Outline: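 GST-tagged human Syk (5 pM) preincubated 10 min with inhibitor (0.1% DMSO) in pH 7.5 Tris buffer, then 45 min at room temperature with 250 nM biotinylated peptide, 5 mM Mg and 25 μM ATP. EDTA-quenched; Eu-anti-phosphotyrosine/SA-APC HTRF read after 30 min, giving IC50.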

| SMILES | IC50 [nM] |
| --- | --- |
| OC1(c2ncc(-c3cc(Nc4nccc(C(F)(F)F)n4)cc(-c4nnn[nH]4)c3)s2)CCC1 [Example 1.4, 1-(5-(3-(1H-Tetrazol-5-yl)-5-((4-(trifluoromethyl)pyrimidin-2-yl)amino)phenyl)thiazol-2-yl)cyclobutanol] | 77.7 |
| CCOC(=O)[C@H]1CC[C@](O)(c2ncc(-c3cc(Nc4nccc(C(F)(F)F)n4)cc(-c4cn[nH]c4)c3)s2)C[C@H]1C (racemic) [Example 1.1, Ethyl rel-(1S,2R,4R or S)-4-(5-(3-(1H-pyrazol-4-yl)-5-((4-(trifluoromethyl)pyrimidin-2-yl)amino)phenyl)thiazol-2-yl)-4-hydroxy-2-methylcyclohexanecarboxylate] | 162 |
| CC1(C)C[C@](O)(c2ncc(-c3cc(Nc4nccc(C(F)(F)F)n4)cc(-c4cncc(F)c4)c3)s2)CC[C@H]1C(=O)O (single isomer, unassigned) [Example 2.15, (1R,4S or 1S,4R)-4-{5-[3-(5-fluoropyridin-3-yl)-5-{[4-(trifluoromethyl)pyrimidin-2-yl]amino}phenyl]-1,3-thiazol-2-yl}-4-hydroxy-2,2-dimethylcyclohexanecarboxylic acid] | 3.22 |
| CC1(C)C[C@](O)(c2ncc(-c3cc(/C=C\C4CC4)cc(Nc4nccc(C(F)(F)F)n4)c3)s2)CC[C@H]1C(=O)O (single isomer, unassigned) [Example 2.27, (1R,4S or 1S,4R)-4-[5-(3-[(Z)-2-cyclopropylethenyl]-5-{[4-(trifluoromethyl)pyrimidin-2-yl]amino}phenyl)-1,3-thiazol-2-yl]-4-hydroxy-2,2-dimethylcyclohexanecarboxylic acid] | 4.06 |
| COc1ccc(-c2cc(Nc3nccc(C(F)(F)F)n3)cc(-c3cnc([C@]4(O)CC[C@@H](C(=O)O)C(C)(C)C4)s3)c2)cn1 (single isomer, unassigned) [Example 2.7, (1R,4S or 1S,4R)-4-hydroxy-4-{5-[3-(6-methoxypyridin-3-yl)-5-{[4-(trifluoromethyl)pyrimidin-2-yl]amino}phenyl]-1,3-thiazol-2-yl}-2,2-dimethylcyclohexanecarboxylic acid] | 3.68 |
| Cc1ccsc1-c1cc(Nc2nccc(C(F)(F)F)n2)cc(-c2cnc([C@]3(O)CC[C@@H](C(=O)O)C(C)(C)C3)s2)c1 (single isomer, unassigned) [Example 2.23, (1R,4S or 1S,4R)-4-hydroxy-2,2-dimethyl-4-{5-[3-(3-methylthiophen-2-yl)-5-{[4-(trifluoromethyl)pyrimidin-2-yl]amino}phenyl]-1,3-thiazol-2-yl}cyclohexanecarboxylic acid] | 10.1 |
| CC/C=C\c1cc(Nc2nccc(C(F)(F)F)n2)cc(-c2cnc([C@]3(O)CC[C@@H](C(=O)O)C(C)(C)C3)s2)c1 (single isomer, unassigned) [Example 2.26, (1R,4S or 1S,4R)-4-[5-(3-[(1Z)-but-1-en-1-yl]-5-{[4-(trifluoromethyl)pyrimidin-2-yl]amino}phenyl)-1,3-thiazol-2-yl]-4-hydroxy-2,2-dimethylcyclohexanecarboxylic acid] | 2.68 |
| Cc1ccc(F)c(-c2cc(Nc3nccc(C(F)(F)F)n3)cc(-c3cnc([C@]4(O)CC[C@@H](C(=O)O)C(C)(C)C4)s3)c2)c1 (single isomer, unassigned) [Example 2.22, (1R,4S or 1S,4R)-4-[5-(2′-fluoro-5′-methyl-5{[4-(trifluoromethyl)pyrimidin-2 yl]amino}biphenyl-3-yl)-1,3-thiazol-2-yl]-4-hydroxy-2,2-dimethylcyclohexanecarboxylic acid] | 46 |
| CC(C)(C)/C=C\c1cc(Nc2nccc(C(F)(F)F)n2)cc(-c2cnc([C@]3(O)CC[C@@H](C(=O)O)C(C)(C)C3)s2)c1 (single isomer, unassigned) [Example 2.29, (1R,4S or 1S,4R)-4-[5-(3-[(1Z)-3,3-dimethylbut-1-en-1-yl]-5-{[4-(trifluoromethyl)pyrimidin-2-yl]amino}phenyl)-1,3-thiazol-2-yl]-4-hydroxy-2,2-dimethylcyclohexanecarboxylic acid] | 16.8 |
| C/C=C(\C)c1cc(Nc2nccc(C(F)(F)F)n2)cc(-c2cnc([C@]3(O)CC[C@@H](C(=O)O)C(C)(C)C3)s2)c1 (single isomer, unassigned) [Example 2.28, (1R,4S or 1S,4R)-4-hydroxy-2,2-dimethyl-4-[5-(3-[(1E)-1-methylprop-1-en-1-yl]-5-{[4-(trifluoromethyl)pyrimidin-2-yl]amino}phenyl)-1,3-thiazol-2-yl]cyclohexanecarboxylic acid] | 2.75 |
| Cc1ccccc1-c1cc(Nc2nccc(C(F)(F)F)n2)cc(-c2cnc([C@]3(O)CC[C@@H](C(=O)O)C(C)(C)C3)s2)c1 (single isomer, unassigned) [Example 2.20, (1R,4S or 1S,4R)-4-hydroxy-2,2-dimethyl-4-[5-(2′-methyl-5-{[4-(trifluoromethyl)pyrimidin-2-yl]amino}biphenyl-3-yl)-1,3-thiazol-2-yl]cyclohexanecarboxylic acid] | 70.4 |
| Cc1cc(-c2cc(Nc3nccc(C(F)(F)F)n3)cc(-c3cnc([C@]4(O)CC[C@@H](C(=O)O)C(C)(C)C4)s3)c2)ccc1F (single isomer, unassigned) [Example 2.16, (1R,4S or 1S,4R)-4-[5-(4′-fluoro-3′-methyl-5-{[4-(trifluoromethyl)pyrimidin-2-yl]amino}biphenyl-3-yl)-1,3-thiazol-2-yl]-4-hydroxy-2,2-dimethylcyclohexanecarboxylic acid] | 153 |
| CC1(C)C[C@](O)(c2ncc(-c3cc(Nc4nccc(C(F)(F)F)n4)cc(-c4ccncc4)c3)s2)CC[C@H]1C(=O)O (single isomer, unassigned) [Example 2.5, (1R,4S or 1S,4R)-4-hydroxy-2,2-dimethyl-4-[5-(3-pyridin-4-yl-5-{[4-(trifluoromethyl)pyrimidin-2-yl]amino}phenyl)-1,3-thiazol-2-yl]cyclohexanecarboxylic acid] | 1.56 |
| C=C(C)c1cc(Nc2nccc(C(F)(F)F)n2)cc(-c2cnc([C@]3(O)CC[C@@H](C(=O)O)C(C)(C)C3)s2)c1 (single isomer, unassigned) [Example 2.30, (1R,4S or 1S,4R)-4-hydroxy-2,2-dimethyl-4-{5-[3-(1-methylethenyl)-5-{[4-(trifluoromethyl)pyrimidin-2-yl]amino}phenyl]-1,3-thiazol-2-yl}cyclohexanecarboxylic acid] | 3.94 |
